Measured values from paper PMC8404199, “Structure–Activity Relationships of Triple-Action Platinum(IV) Prodrugs with Albumin-Binding Properties and Immunomodulating Ligands” (Journal of Medicinal Chemistry, 2021).

What was measured:
[1] = UHPLC reduction kinetics with dithiothreitol; format: physicochemical; settings: 1 mM complex, 10 mM DTT, 1% DMF, 500 mM phosphate buffer pH 7.4, 20 °C
Experimental: Figure S 3: Reduction kinetics of reference compounds with AA at 20°C , measured by UHPLC and UV absorption at 220 nm. A: Comparison of OAc/IPAEs with amino -group containing SucCa/IdoEs; B:
Reductive stability of reference compounds with no 1MDT -like ligand. AUC-values were normalized to t = 0. Experimental conditions: 1 mM complex, 10 mM AA in 1% DMF and 500 mM phosphate buffer […]
conditions: 1 mM complex, 10 mM DTT in 1% DMF and 500 mM phosphate buffer (pH 7.4). […]

[2] = test system: phosphorylation of histone H2A.X at position Ser139; assay: pH2AX signal detection in HCT116 cells; format: cell-based, human; settings: HCT116, 50 µM, 24 h, 5-fold excess AA
Experimental: HCT116 cells were seeded on polytetrafluoroethylene-printed spot slides (E63424-06, Science Services GmbH, Munich, Germany) at a density of 4000 cells/spot. On the next day, cells were exposed to the compounds for 24 h, at 50 μM and fixed in a 4% formaldehyde solution in phosphate-buffered saline (PBS) with a pH adjusted to 7.4 (158127, Merck, Darmstadt, Germany) for 15 min at RT. Spots were washed thrice with PBS each for 5 min, and samples were then incubated in a blocking buffer [PBS, 5% albumin (Carl Roth, Karlsruhe, Germany), 0.3% Triton X-100 (T8787, Merck, Darmstadt, Germany)] for 1 h at RT. […] Next, samples were incubated with rhodamine-labeled wheat germ agglutinin (RL-1022, Vector Laboratories, California, USA) at a concentration for 5 μg/mL for 15 min at RT, and spots were washed twice in PBS, embedded in vectashield mounting medium with DAPI (VECH-1200, Szabo-Scandic, Vienna, Austria), and analyzed using a LSM700 confocal microscope (Zeiss Axio Observer.Z1, inverse, 63× plan-apochromat NA 1.4 Oil DIC objective). […] Images were analyzed using ImageJ software. […] Then, Alexa Fluor 488 signal (integrated density) was measured and normalized to nuclear area.

HCT116 cells = assay: Cell cycle analysis in HCT116 cells; format: cell-based, human; settings: HCT116, 50 µM, 24 h, 5-fold excess AA
Experimental: The cells were seeded at 600,000 cells/well in six-well plates and allowed to recover for 24 h. On the next day, cells were exposed to the compounds for 24 h, then trypsinized, and collected. Subsequently, cells were washed with PBS and centrifuged (400g, 5 min), and the cell pellet was resuspended in 100 μL of 0.9% NaCl solution. The cell suspension was then added dropwise to 1.8 mL of ice-cold 80% ethanol and incubated for 48 h at −20 °C. The fixated cells were centrifuged (6200g, 2 min), and the cell pellet was diluted in 0.5 mL of PBS with 0.1 mg/mL RNAse A (R5503, Merck, Darmstadt, Germany), which was previously heat-activated (10 min at 96 °C), and samples were incubated for 30 min at 37 °C to remove RNA content. Next, to stain DNA, propidium iodide (81845, Merck, Darmstadt, Germany) at a concentration of 5 μg/mL was added, samples were incubated for 30 min on ice and subsequently measured by flow cytometry.

Treg differentiation = Treg differentiation assay in human PBMC/SKOV3 co-culture; format: cell-based; settings: 50 μM, 5 days, PBMC from three donors co-cultured with SKOV3
Experimental: PBMCs were thawed and slowly dropped into warm medium at a rate of 1 drop/5 s. PBMCs were then centrifuged (10 min, 400g) and washed with warm AIM V medium (12055091, Thermo Fisher Scientific, Massachusetts, USA). PBMCs were co-cultured with SKOV3 at a ratio of 2:1 (PBMC/SKOV3) in 12-well CytoOne plates (CC7682-7512, Starlab, Hamburg, Germany). In the presence of IL-2 (SRP3085, Merck, Darmstadt, Germany) at a concentration of 80 ng per 10^6, PBMCs were added. To induce Treg differentiation, OKT3 monoclonal CD3 antibody (317302, BioLegend, California, USA) and TGF-β1 CHO (AF-100-21C-10 μg, Eubio, Vienna, Austria) were added at concentrations of 4 μg and 10 ng per 10^6 PBMC, respectively. […] After 3 days, 250 μL of fresh AIM V medium was added, and cells were incubated for another two days. On the day of measurement, supernatant, containing PBMC, was collected.
Cells were washed with PBS and stained using the Aqua Zombie Fixable Viability Kit (423101, BioLegend, California, USA), according to the manufacturer’s instructions. Cells were then stained with fluorescent dye-labeled antibodies, according to the manufacturer’s instructions (Table S7). […] The cleaned up data were analyzed using the gating strategy, as shown in Figure S15 for murine tissue and Figure S16 for human co-culture experiment.

| SMILES | reduction in the presence of dithiothreitol (in words) [1] | pH2A.X signals upon reduction by AA [2] | fraction of cells in G2/M phase upon reduction by AA (HCT116 cells) | Treg differentiation (frequency of Treg in CD4+ T cells) (Treg differentiation) |
| --- | --- | --- | --- | --- |
| Cn1cc(CC([NH3+])C(=O)[O][Pt]23([O]C(=O)NCCCCCN4C(=O)CCC4=O)([NH]C4CCCCC4[NH]2)[O]C(=O)C(=O)[O]3)c2ccccc21.O=C([O-])C(F)(F)F [SucCa/IdoEs, (OC-6-34)-[(R)-2-Ammonio-3-(1-methyl-1H-indol-3-yl)propanoato][(1R,2R)-1,2-cyclohexanediamino][5-(2,5-dioxo-2,5-dihydro-1H-pyrrolidin-1-yl)pentylcarbamato]oxalatoplatinum(IV) Trifluoroacetate] | readily reduced | increased pH2A.X signals | increased fraction of cells in the G2/M phase |  |
| Cn1cc(C[C@@H](NC(=O)[O][Pt]2([O]C(=O)CCCCCN3C(=O)CCC3=O)[O]C(=O)C(=O)[O]2)C(=O)O)c2ccccc21.N[C@@H]1CCCC[C@H]1N [SucEs/IdoCa] |  |  |  | significantly reduced Treg differentiation |
| Cn1cc(C[C@@H]([NH3+])C(=O)[O][Pt]2([O]C(=O)CCCCCN3C(=O)CCC3=O)[O]C(=O)C(=O)[O]2)c2ccccc21.N[C@@H]1CCCC[C@H]1N.O=C([O-])C(F)(F)F [SucEs/IdoEs, (OC-6-44)-[(R)-2-Ammonio-3-(1-methyl-1H-indol-3-yl)propanoato][(1R,2R)-1,2-cyclohexanediamino][6-(2,5-dioxopyrrolidin-1-yl)hexanoato]oxalatoplatinum(IV) Trifluoroacetate] |  | increased pH2A.X signals | increased fraction of cells in the G2/M phase |  |
